Source: patent US10918648B2, “Estrogen receptor modulator combinations” (The Regents of the University of California, priority 2016, dated 2021)
Where two headings read alike, the source gives them in different places.

Experiments:
[1] = system: MCF-7 breast cancer cells; assay: MCF-7 breast cancer cell proliferation (BrdU ELISA) in presence of estradiol-17β; format: cell-based, human; settings: for IC50: Homo sapiens, MCF7, 72 hrs in the presence of 1 nM estradiol-17β, BrdU ELISA, read-out: IC50 for inhibition of cell proliferation, MCF-7; for inhibition of MCF-7 cell proliferation/survival: 1 μM or 50 μM antiestrogen in the presence of 1 nM estradiol, 1% DCC-FBS, FIG. 2A
Method: In experiments to assess potential proliferative effects of novel estrogen receptor ligands, human breast cancer cells were grown in phenol red-free, estrogen-free media with 1% dextran-coated charcoal-treated (DCC)-fetal bovine serum (FBS) for 48 hrs (15,44), then treated with either 1 μM or 50 μM doses of estrogen receptor antagonists in the presence of 1 nM estradiol-17β. Cell counts and viability tests (Trypan blue) were done every 24 hr for 3 days. After 72 hr, proliferation was assessed using the BrdU Cell proliferation ELISA (Roche). Cell numbers were also assessed initially by cell counts to confirm ELISA data. Each antiestrogen was tested at least in three different experiments.
In order to assess the antitumor action of novel estrogen receptor antagonists, we cultured human MCF-7 breast cancer cells with known expression of ERα. Cells were grown in 1% DCC-FBS for 48 hr and then treated with vehicle control or either 1 μM or 50 μM concentrations of antiestrogens JD 101-160 or the pure antiestrogen fulvestrant (FAS), all in the presence of 1 nM estradiol-170. […] Shown in FIG. 2A are results from MCF-7 cells grown in 1% DCC-FBS for 48 hr and then treated with vehicle control, 1 nM estradiol-170 and either 1 μM or 50 μM concentrations of antiestrogens JD 101-160 or the known pure antiestrogen fulvestrant (FAS) in the presence of 1 nM estradiol-170. Cell proliferation is expressed as percentage of that determined in the 1 nM estradiol-170-treated control group.
Cell proliferation assays: breast and lung tumor cells (between […]) were plated in 96 well plates using their respective medium with 10% FBS. For experiments using estradiol-17β, cells were rinsed with PBS and incubated with phenol redfree medium with 1% DCC-FBS for 48 hours as described before (24,25). Cells were then treated with different concentrations of SERDs ranging between 0.0001-100 μM. […] Cell counts and viability tests (Trypan blue) were done every 24 hr for 3 days. After 72 hr, proliferation was assessed with the MTS Assay CELLTITER 96® Aqueous Cell Proliferation Assay (Promega) or the Cell Proliferation ELISA, BrdU colorimetric assay (Roche). For the MTS, the absorbance of the formazan product was measured at 490 nanometer using the iMARK microplate reader from BIORAD. The BrdU ELISA assay is based on detection of BrdU incorporated into the genomic DNA of proliferating cells and an anti-BrdU antibody, the reaction product was quantified by measuring the absorbance at 370 nanometers using iMARK microplate reader from BIORAD. Cell numbers were also assessed initially by cell counts to confirm MTS/BrdU data. Experiments were done at least three times to confirm data.

estrogen receptor-alpha = biological target: T1, estrogen receptor-alpha (Homo sapiens, UniProt P03372); assay: ER down-regulation, Western immunoblot of ERα protein in MCF-7 cells; format: cell-based; settings: for estrogen receptor-alpha expression (ERα protein levels, Western immunoblot): 1 μM or 10 μM, 48 hrs, in the presence of 1 nM estradiol, FIG. 3A
T1 construct: MCF-7 breast cancer cells with high expression of ERα protein were treated with; endogenous in cells; host or cells: MCF-7 human breast cancer cells
T1 sequence (P03372 1-595): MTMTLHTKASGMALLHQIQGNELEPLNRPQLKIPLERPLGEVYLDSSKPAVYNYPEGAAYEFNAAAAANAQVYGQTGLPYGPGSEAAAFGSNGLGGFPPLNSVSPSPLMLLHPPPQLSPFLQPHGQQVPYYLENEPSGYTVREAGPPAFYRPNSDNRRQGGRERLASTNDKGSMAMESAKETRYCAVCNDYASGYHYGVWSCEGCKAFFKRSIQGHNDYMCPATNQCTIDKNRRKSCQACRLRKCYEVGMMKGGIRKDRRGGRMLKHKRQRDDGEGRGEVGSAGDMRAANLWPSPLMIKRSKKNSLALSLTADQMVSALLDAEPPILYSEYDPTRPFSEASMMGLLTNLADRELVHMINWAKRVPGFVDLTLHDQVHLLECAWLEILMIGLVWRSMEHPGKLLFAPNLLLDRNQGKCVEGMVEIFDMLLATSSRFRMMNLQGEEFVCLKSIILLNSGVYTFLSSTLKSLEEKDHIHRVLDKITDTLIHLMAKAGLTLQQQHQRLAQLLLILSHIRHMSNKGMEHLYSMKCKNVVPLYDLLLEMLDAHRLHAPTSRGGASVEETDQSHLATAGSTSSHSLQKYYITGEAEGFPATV
Method: MCF-7 breast cancer cells were maintained in estrogen-free conditions 48 h before experiments as described above. Cells were then incubated with vehicle control or either 1 μM or 10 μM antiestrogens in the presence of 1 nM estradiol-1713 for 48 hrs. After lysis, total cell proteins were resolved by 4-15% SDS-PAGE, transferred to polyvinylidene difluoride membranes and probed with mouse monoclonal antibody directed against estrogen receptor-alpha (Assay Designs, #SRA1010). Membranes were stripped and re-probed with Ribosomal Protein L13A (Santa Cruz Biotechnology, C11) as a loading control (45).
Fulvestrant (Faslodex®) has been characterized as a selective ERα downregulator and a pure anti-estrogen. Fulvestrant inhibits the transcriptional response to estrogen stimulation and induces the degradation of estrogen receptor proteins (46,47). […] One problem with fulvestrant is that the drug requires intramuscular injection and may not achieve optimal antitumor effects due to the limited doses that can be administered by this drug delivery method. […] MCF-7 breast cancer cells with high expression of ERα protein were treated with estradiol-170 and either 1 μM or 10 μM concentrations of JD128 and JD140 for 48 hours. […] MCF-7 breast cancer cells were estrogen-deprived for 48 hrs, then treated with 1 nM estradiol-170 (E2) or antiestrogens JD128 (128) or JD140 (140) at 1 μM or 10 μM concentrations in the presence of 1 nM estradiol-170. After 48 hrs, PAGE and immunoblotting was performed with antibody directed to anti-ERα (SRA1010) and anti-RPL13A for a loading control.
ER down-regulation: To determine if selected compounds can down-regulate ER protein, we treated cells for 24-48 hrs in vitro with candidate compounds at varying doses. Then, cells were disrupted and prepared for PAGE and Western immunoblots using anti-ERα antibodies (see FIG. 6A). […] Those ERDs with optimal activity in down-regulating ER were investigated further in the chemistry laboratory to further refine and develop such agents. […]

A549 NSCLC cells = assay: NSCLC cell proliferation in vitro (MTS assay); format: cell-based, human; settings: 72 hours; for IC50: MTS assay
[2] = in the presence of 1 μM abemaciclib, 5% DCC-FBS, read-out: IC50 of SERD for inhibition of NSCLC cell proliferation, A549
[3] = in the presence of 1 μM palbociclib, 5% DCC-FBS, read-out: IC50 of SERD for inhibition of NSCLC cell proliferation, A549
[4] = Homo sapiens, A549, SERD alone, estrogen-depleted phenol red-free medium with 5% DCC-FBS, read-out: IC50 for inhibition of NSCLC cell proliferation, A549

Row | Compound | IC50 [1] [nM] | ER protein levels (Western immunoblot) (estrogen receptor-alpha; 24 hours, 10, 100 and 1000 nM, FIG. 6A) | IC50 (A549 NSCLC cells; [2]) [nM] | IC50 (A549 NSCLC cells; [3]) [nM] | inhibition of MCF-7 cell proliferation/survival [1] | estrogen receptor-alpha expression (ERα protein levels, Western immunoblot) (estrogen receptor-alpha) | antiproliferative effects compared with fulvestrant (A549 NSCLC cells; A549, RPMI 1640 with 10% FBS, 1 μM or 10 μM, FIG. 8A) | IC50 (A549 NSCLC cells; [4]) [nM]
1 | C[C@]12C[C@H](Oc3ccc(N)cc3)[C@@H]3c4ccc(O)cc4CC[C@H]3[C@@H]1CC[C@@H]2O [JD105, (8S,9S,11S,13S,14S,17S)-11-(4-aminophenoxy)-13-methyl-7,8,9,11,12,13,14,15,16,17-decahydro-6H-cyclopenta[a]phenanthrene-3,17-diol] | 2140 | reduces ER protein levels | 410 | 2570 | – | – | – | –
2 | C[C@]12C[C@H](Oc3ccc(NC(=O)CCCCN4CCCCC4)c(F)c3)[C@@H]3c4ccc(O)cc4CC[C@H]3[C@@H]1CC[C@@H]2O [JD140, N-(4-(((8S,9S,11S,13S,14S,17S)-3,17-Dihydroxy-13-methyl-7,8,9,11,12,13,14,15,16,17-deca-hydro-6H-cyclopenta[a]phenanthren-11-yl)oxy)-2-fluorophenyl)-5-(piperidin-1-yl)pentan-amide] | 320 | – | 640 | 1220 | significant inhibition | down-regulated | significant antiproliferative effects | 500
3 | C[C@]12C[C@H](Oc3ccc(N)c(C(F)(F)F)c3)[C@@H]3c4ccc(O)cc4CC[C@H]3[C@@H]1CC[C@@H]2O [JD128, (8S,9S,11S,13S,14S,17S)-11-(4-Amino-3-(trifluoromethyl)phenoxy)-13-methyl-7,8,9,11,12,13,14,15,16,17-decahydro-6H-cyclopenta[a]phenanthrene-3,17-diol] | 110 | – | 660 | 1340 | significant inhibition | greatest effect at suppressing estrogen receptor-alpha expression | – | 1090
